Consider two molecules from US20160011176A1, “METHOD AND DEVICE FOR EXAMINING MYOCARDIAL TOXICITY AND EVALUATING CARDIOMYOCYTES” (NATIONAL UNIVERSITY CORPORATION TOKYO MEDICAL AND DENTAL …, priority 2012, published 2016).

Series [1] concerns cardiomyocyte network. Kind of series: Simultaneous measurement of extracellular potential (FP) and contractile force (optical imaging) in a cardiomyocyte network. It counts as cell-based. The source says: FIG. 43 is a schematic diagram showing an example of a system configuration of the present invention to simultaneously measure the mechanical properties and electrical properties of cardiomyocytes. The present system includes (1) a cellular network chip that can be used for culturing a cell population, includes a plurality of micro-electrodes disposed on a substrate and can be used for acquiring cellular potential data of a small area of the population; (2) a chip mounter for mounting the chip and joining electrically with cell-stimulating and/or cellular potential measuring system; (3) an environmental control vessel which can be used to control the environment such as temperature, humidity, oxygen concentration and carbon dioxide concentration of the cell population being cultured; (4) a micro multi-electrode potential measurement system that can give stimulation to a specific cell of a cardiomyocyte population, and allows simultaneous continuous measurements of cellular potentials of various small areas in the cell population; (5) one or more position-coordinate probe microparticles configured to measure changes in shape of myocardial cells and allow easy identification of cardiomyocytes using a plastic, polymer, glass or metal microparticles such as polystyrene microparticles, glass microparticles or gold microparticles of sizes from at minimum about 0.1, 0.2 μm, 0.3 μm, 0.4 μm, 0.5 μm, 0.6 μm, 0.7 μm, or preferably about 0.8 μm, more preferably about 0.9 μm, or most preferably about 1 μm to at most about 500 μm, 400 μm, 300 μm, preferably about 200 μm, more preferably about 100 μm or most preferably about 50 μm, wherein the particles are disposed in the cell population by mixing them on the surface of the cardiomyocyte population in the cell network chip or in the cell population and culturing them; (6) an optical image capturing system for optically measuring the microparticles, wherein the system includes a light source, an optical microscope and an image-capturing camera to capture the images of the microparticles; and (7) a computer system for image analysis, cellular potential analysis, stimulus control and/or integrated data acquisition, wherein the system is capable of measurements of cellular potential and analysis of waveforms of the potential, measurements of cell displacements by image analysis and feedback stimulation based on the analysis results. In the measurements using the device system, as for the stimulus to cause depolarization of the myocardial cells, the stimulus can be provided by selecting mainly from three means, i.e., (A) measurements using conduction of autonomous pulsation of the cardiomyocyte population, (B) measurements of conduction by providing a forced electrical stimulation from outside to a specific cell in the cardiomyocyte population and (C) measurements of conduction by providing a feed-back stimulus at a specific timing to meet the relationship of the delay time and the value of the cellular potential based on the cell voltage measured data to the specific cells in the cardiomyocyte population.
FIG. 44 is an example of a data acquisition monitor screen showing an example of data obtained from an example of a system configuration of the present invention to simultaneously measure the mechanical properties and the electrical properties of cardiomyocytes. In a setting of this example, a large number of polystyrene microparticles are placed on the surface of the cardiomyocyte population, a probe-particle displacement-observation window for five of the polystyrene microparticles selected as probes is set, and the center of gravity of the window moves with the movement of the microparticles in the window, thereby displacement of the particular probe microparticles can be measured continuously as a change in vector time in the directions of the X-axis and Y-axis. […]

In series [2] the test system is cardiomyocyte network. Kind of series: Excitation conduction transmitting through a linearly arranged cardiomyocyte network (transmission time, its fluctuation, FPD, STVFPD). Format: cell-based. The source says: FIGS. 65a, b schematically show an example of a method of such measurement of excitation conduction transmitting through a cardiomyocyte network. […] Arranged on a bottom surface of each cell housing on a substrate surface are respective electrodes (about 8 μm in diameter) for measurements of cellular potential, and from each of the electrodes, respective lead lines are extended. A single cardiomyocyte is received in each of the cell housings.
Specifically, in order to measure the temporal variation in the excitation conduction transmitting through the cellular population, an ignition peak of depolarization excited by an initial excitation conduction of each cell or each local point is measured, and at the same time, an ignition peak of an initial depolarization based on excitation conduction in another local area of adjacent another cell or adjacent another cellular population is measured; then a variation of a transmission rate or a transmission elapsed time is measured with respect to the distance between the two measurement points; and then the level of fluctuation of the transmission is quantitatively measured. Generally, the initial peak based on the excitation conduction is deemed to be a sodium spike. Thus, in view of this, the measurements of the initial ignition peak based on the excitation conduction are equivalent to the measurements of the sodium spikes. For example, where a drug with a big risk of proarrhlythmia is used, an increase in the fluctuation is utilized for the measurements. Here, the following are required: (1) a network of a plurality of cardiomyocytes is formed; (2) there is a means for accurately measuring the transmission delay time by measuring respective cellular potential wave form at two or more spatially different points within the network, and simultaneously accurately measuring the time of depolarization ignition spikes excited by the initial excitation conduction of the wave form; (3) in the case where a forced pulsation is provided, three or more electrodes are used to measure time required for transmission of the pulsation between respective electrodes at other measurement electrodes using the electrodes at both ends as stimulation electrodes, enabling measurements of temporal fluctuation of transmission rate or transmission time between the electrodes. As for the fluctuation, the STV as shown in Equation 3 in FIG. 24(c), for example, can be used for quantification. Here, Delayn and Delayn+1 (FIG. 65) can substitute for Vn and Vn+1. For transmission, when velocity is used, respective velocities can substitute for Delayn and Delayn+1. […] Thus, the transmission time will be measured as an extremely shorter transmission time than a transmission delay measured normally between adjacent electrodes. […]

Consider `COc1ccc(CCN(C)CCCC(C#N)(c2ccc(OC)c(OC)c2)C(C)C)cc1OC` (stereo not shown) [verapamil], for which the “angle fluctuation against a decrease in contractile force” value in the series with cardiomyocyte network [1] (10 nM) is reported as “barely increases”. Besides, in the series on cardiomyocyte network [1] (100 nM), the “angle fluctuation (contraction direction)” value is reported as “rapid fluctuation of contractile direction in the angular direction”, the “contractile forces (time variation)” value is recorded as “disappear rapidly” and the “electrical firing of excitatory conduction of cells” value is reported as “is maintained”. Moreover, in the series with cardiomyocyte network [1] (1000 nM), the electrophysiological excitation result is recorded as “does not occur” and the mechanical contraction entry is listed as “does not occur”.
As for `CC(C)(C)c1ccc(C(O)CCCN2CCC(C(O)(c3ccccc3)c3ccccc3)CC2)cc1` (stereo not shown) [terfenadine], in the series on cardiomyocyte network [2] (FIG. 66e), the “fluctuation of FPD (STVFPD)” value is “barely recognizable”. Besides, the “FPD (as indicator of toxicity)” value with cardiomyocyte network [2] (FIG. 66d) is “is not seen”. Besides, in the series with cardiomyocyte network [2] (concentration over 1 μM), the “fluctuation of time required for transmission” value was “increases” and the “transmission rate between adjacent electrodes (relative to no drug)” value is “suddenly decreased”.
